Results as given in patent US20230058954A1, “APREPITANT FOR USE IN THE TOPICAL TREATMENT OF FACIAL NEURALGIA” (ASSISTANCE PUBLIQUE - HOPITAUX DE PARIS, priority 2020, published 2023).

Tested on: patients suffering from facial neuralgia
Assay: Earlier treatments of the same patients (not relieved by)
Type: in vivo, human
[1] = Patient 3, post-zooster facial neuralgia

SMILES	relief of pain by earlier treatment (Patient 2, facial neuralgia)	relief of pain by earlier treatment [1]	relief of pain by earlier treatment (Patient 1, trigeminal neuralgia)
CN(C)CCC=C1c2ccccc2CCc2ccccc21 [amitriptyline]	No relieved	No relieved	–
CNCC[C@H](Oc1cccc2ccccc12)c1cccs1 [duloxetine]	No relieved	–	–
NCC1(CC(=O)O)CCCCC1 [gabapentin]	No relieved	–	–
CNC1(c2ccccc2Cl)CCCCC1=O (stereo not drawn) [ketamine]	–	–	No relieved
CCC(=O)C(CC(C)N(C)C)(c1ccccc1)c1ccccc1 (stereo not drawn) [methadone]	No relieved	–	–
CC(C)C[C@H](CN)CC(=O)O [pregabalin]	No relieved	No relieved	–
COc1cccc(C2(O)CCCCC2CN(C)C)c1 (stereo not drawn) [tramadol]	–	No relieved	–
